This note sets out measurements from patent US10150737B2, “Compounds for controlling arthropods” (priority 2013, dated 2018).

Series [1] in a line: logP determination by HPLC on a reversed-phase column (C18). The series is classed as physicochemical. The note with it: for logP^a): HPLC-MS method a); for log P: HPLC-MS.
Series [2] relates to Ctenocephalides felis. Description: Ctenocephalides felis - in vitro contact tests with adult cat fleas. The series is classed as in vivo. As to conditions: application rate 5 μg/cm2 (=500 g/ha); after 48 h; fleas dead or moribund. How it is done:
For the coating of the test tubes, 9 mg of active ingredient are first dissolved in 1 ml of acetone p.a. and then diluted to the desired concentration with acetone p.a. 250 μl of the solution are distributed homogeneously on the inner walls and base of a 25 ml test tube by turning and rocking on an orbital shaker (rocking rotation at 30 rpm for 2 h). With 900 ppm active ingredient solution and internal surface area 44.7 cm^2, given homogeneous distribution, an area-based dose of 5 μg/cm^2 is achieved.
After the solvent has evaporated off, the tubes are populated with 5-10 adult cat fleas (Ctenocephalides felis), sealed with a perforated plastic lid and incubated in a horizontal position at room temperature and ambient humidity. After 48 h, efficacy is determined. To this end, the test tubes are stood upright and the fleas are knocked to the base of the tube. Fleas which remain motionless at the base or move in an uncoordinated manner are considered to be dead or moribund.
100% efficacy means that all the fleas were dead or moribund. 0% efficacy means that no fleas were harmed.

For series [3], the system named is Boophilus microplus. Nature of the series: Boophilus microplus - injection test. The series is classed as in vivo. As to conditions: application rate 20 μg/animal; injection into engorged adult female ticks; after 7 days. The method in brief: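 Active ingredient in DMSO, 1 μl injected into the abdomen of 5 engorged adult female ticks, then held in a climate-controlled room. Efficacy scored after 7 days from laying of fertile eggs, with non-fertile-looking eggs kept about 42 days for larval hatch; 100% means no fertile eggs.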

The test system of series [4] is Ctenocephalides felis. Nature of the series: Ctenocephalides felis - oral test. The note with it: application rate 100 ppm in citrated cattle blood; after 2 days. The series is classed as in vivo. Put shortly: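 Compound in DMSO diluted into citrated cattle blood, fed through a parafilm membrane to about 20 unfed adult cat fleas. Kill in % scored after 2 days (100% = all dead).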

The test system of series [5] is Myzus persicae. Nature of the series: Myzus persicae - spray test. The series is classed as in vivo. As to conditions: Chinese cabbage leaf discs, after 6 days. How it is done: Solvent: 78 parts by weight of acetone and 1.5 parts by weight of dimethylformamide
Emulsifier: alkylaryl polyglycol ether
To produce an appropriate active ingredient formulation, 1 part by weight of active ingredient is dissolved using the specified parts by weight of solvent and made up with water containing an emulsifier concentration of 1000 ppm until the desired concentration is attained. To produce further test concentrations, the preparation is diluted with emulsifier-containing water.
Discs of Chinese cabbage leaves (Brassica pekinensis) infested by all stages of the green peach aphid (Myzus persicae) are sprayed with an active ingredient formulation of the desired concentration.
After 6 days, efficacy in % is determined. 100% means that all the aphids have been killed; 0% means that none of the aphids have been killed.

In series [6] the test system is Phaedon cochleariae. Nature of the series: Phaedon cochleariae - spray test. The format is in vivo. The note with it: larvae on Chinese cabbage leaf discs, after 7 days. Put shortly: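 Chinese cabbage leaf discs sprayed with compound formulated in acetone/DMF and water containing 1000 ppm emulsifier; once dry, infested with mustard beetle larvae. Efficacy (% larvae killed) scored after 7 days.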

Series [7] has as its system Tetranychus urticae. Nature of the series: Tetranychus urticae - spray test, OP-resistant. The format is in vivo. The note with it: bean leaf discs, after 6 days. The method in brief: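 Compound dissolved in acetone/DMF, diluted with water containing 1000 ppm alkylaryl polyglycol ether emulsifier to test concentrations. Bean leaf discs infested with all stages of spider mites were sprayed; % kill determined after 6 days (100% = all mites dead, 0% = none).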

The test system of series [8] is Lucilia cuprina. Nature of the series: Lucilia cuprina test. The note with it: application rate 100 ppm; L1 larvae; after 2 days. The series is classed as in vivo. Put shortly: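 About 20 L1 larvae placed on minced horsemeat treated with compound, formulated in DMSO and diluted with water to test concentration. Kill in % scored after 2 days (100% = all larvae dead, 0% = none).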

Series [9] concerns Musca domestica. Nature of the series: Musca domestica test. The format is in vivo. As to conditions: application rate 100 ppm; adult houseflies; after 2 days. Put shortly:
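Compound in DMSO, diluted with water, applied to a sugar-solution sponge; vessels hold 10 adult houseflies. Percent mortality scored after 2 days.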

The subject of series [10] is Spodoptera frugiperda. Description: Spodoptera frugiperda - spray test. The format is in vivo. The note with it: caterpillars on maize leaf discs, after 7 days. Put shortly: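 Maize leaf discs sprayed with compound formulated in acetone/DMF and diluted in water containing 1000 ppm alkylaryl polyglycol ether emulsifier, then infested with armyworm caterpillars after drying. Efficacy scored after 7 days as % caterpillars killed (100% all, 0% none).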

Setting [11] is: reversed-phase column (C18), Table I-T3.

Regarding `Cc1ncc(-c2cnn(-c3c(Cl)cc(C(F)(F)F)cc3Cl)c2)cc1C(=O)N(C)C1(C#N)CC1` [I-T3-132], the “logP^a)” value in series [1] (reversed-phase column (C18)) amounted to 2.9. Also, the log partition coefficient (log P) in series [1] (setting [11]) was determined as 2.9. Moreover, the efficacy in series [2] stood at 100%; in series [5] (application rate 100 g/ha), 90%; in series [6] (application rate 100 g/ha) it was 100%; in series [7] (application rate 100 g/ha), 100%. In addition, the “efficacy (laying of fertile eggs)” value in [3] came to 100%. Further, the “efficacy (kill)” value in series [4] is recorded as 100%.

In the case of `Cc1cc(C(F)(C(F)(F)F)C(F)(F)F)cc(C)c1-n1cc(-c2cccc(C(=O)NC3CC3)c2)cn1` [I-T3-29], the “logP^a)” value in series [1] and in series [1] (setting [11]) was 3.3 in each case. Besides, the efficacy in [2] worked out at 100%; in [5] (application rate 500 g/ha), 90%; in series [6] (application rate 500 g/ha), 100%; in series [10] (application rate 500 g/ha), 100%; in [7] (application rate 500 g/ha), 100%. Further, the “efficacy (laying of fertile eggs)” value in series [3] was found to be 100%. Moreover, the “efficacy (kill)” value in series [4], in series [8] and in series [9] was 100% throughout.

In the case of `Cc1cc(C(F)(C(F)(F)F)C(F)(F)F)cc(C(F)(F)F)c1-n1cc(-c2ccc(Cl)c(C(=O)NC3CSC3)c2)cn1` [I-T3-85], the “logP^a)” value in [1] and in series [1] (setting [11]) was 4.7 each time. Further, the efficacy is on record as 100% in series [2]; 90% in [5] (application rate 100 g/ha); 100% in series [6] (application rate 100 g/ha); 100% in series [10] (application rate 100 g/ha); 100% in [7] (application rate 100 g/ha). The “efficacy (laying of fertile eggs)” value in [3] was found to be 100%. For the same molecule, the “efficacy (kill)” value in series [4], in series [8] and in series [9] was 100% throughout.

As for `Cc1ncc(-c2cnn(-c3c(Cl)cc(C(F)(F)F)cc3Cl)c2)cc1C(=O)NC1(C#N)CC1` [I-T3-129], in series [1] (reversed-phase column (C18)), the “logP^a)” value is 2.6. Besides, the “log P” value in series [1] (setting [11]) amounted to 2.6. Also, the efficacy in series [2], in series [5] (application rate 100 g/ha), in series [6] (application rate 100 g/ha) and in series [7] (application rate 100 g/ha) was 100% throughout. Also, the “efficacy (laying of fertile eggs)” value in series [3] turned out to be 100%. The results for the “efficacy (kill)” value in [4] and in series [9] were 100% and 80%, respectively.

`Cc1ncc(-c2cnn(-c3c(Cl)cc(C(F)(F)F)cc3Cl)c2)cc1C(=O)N(C)C1CC1` [I-T3-128]: in [1] (reversed-phase column (C18)), the “logP^a)” value came out at 2.8. The log partition coefficient (log P) in series [1] (setting [11]) worked out at 2.8. Moreover, the efficacy in [2], in series [5] (application rate 100 g/ha) and in series [6] (application rate 100 g/ha) was 100% each time. The “efficacy (laying of fertile eggs)” value in series [3] was 100%. Further, the “efficacy (kill)” value in [4] is listed as 100%.

As to `Cc1cc(C(F)(C(F)(F)F)C(F)(F)F)cc(C)c1-n1cc(-c2cncc(C(=O)NC3CC3)c2)cn1` [I-T3-7], the “logP^a)” value in series [1] and in series [1] (setting [11]) was 3.4 throughout. Also, the efficacy in series [2], in series [5] (application rate 500 g/ha), in [6] (application rate 500 g/ha), in series [10] (application rate 500 g/ha) and in [7] (application rate 500 g/ha) was 100% each time. In addition, in [3], the “efficacy (laying of fertile eggs)” value is 100%. Moreover, the “efficacy (kill)” value in series [4] was 100%; in series [8], 100%; in series [9] it was 80%.

For the molecule `CCN(C(=O)c1cc(-c2cnn(-c3c(Cl)cc(C(F)(F)F)cc3Cl)c2)cnc1Cl)C1CC1` [I-T3-145], the “logP^a)” value in series [1] (reversed-phase column (C18)) stood at 3.8. Further, the log partition coefficient (log P) in series [1] (setting [11]) came to 3.8. Also, the efficacy in series [2] came to 100%; in [5] (application rate 100 g/ha) it was 90%; in [6] (application rate 100 g/ha), 100%; in series [10] (application rate 100 g/ha), 100%; in [7] (application rate 100 g/ha), 100%. Moreover, in series [3], the “efficacy (laying of fertile eggs)” value turned out to be 100%. The “efficacy (kill)” value in series [4] is listed as 100%; in series [8] it was 100%; in [9], 90%.

`N#CC1(NC(=O)c2cc(-c3cnn(-c4c(Cl)cc(OC(F)(F)F)cc4Cl)c3)ccc2Cl)CC1` [I-T3-87]: the “logP^a)” value in [1] and in series [1] (setting [11]) was 3.6 in each case. In addition, the efficacy in series [2] was 100%; in [5] (application rate 100 g/ha), 90%; in [6] (application rate 100 g/ha) it was 100%; in series [10] (application rate 100 g/ha) it was 100%; in [7] (application rate 100 g/ha) it was 100%. The “efficacy (laying of fertile eggs)” value in [3] is given as 100%. The “efficacy (kill)” value in series [4], in [8] and in series [9] was 100% in each case.

Take `CCc1cc(C(F)(C(F)(F)F)C(F)(F)F)cc(C)c1-n1cc(-c2cncc(C(=O)NC3(C#N)CC3)c2)cn1` [I-T3-76]: the “logP^a)” value in [1] and in [1] (setting [11]) was 3.4 throughout. The “efficacy (laying of fertile eggs)” value in series [3] turned out to be 100%. In addition, the “efficacy (kill)” value in series [4] is given as 100%; in series [8], 90%; in [9], 90%. The efficacy in series [5] (application rate 100 g/ha) is listed as 90%; in [6] (application rate 500 g/ha), 100%; in series [10] (application rate 500 g/ha) it was 100%; in series [7] (application rate 500 g/ha) it was 100%.

`Cc1ncc(-c2cnn(-c3c(Cl)cc(C(F)(F)F)cc3Cl)c2)cc1C(=O)NC1CC1` [I-T3-127]: the “logP^a)” value in [1] (reversed-phase column (C18)) came out at 2.5. Further, the lipophilicity (log P) in series [1] (setting [11]) turned out to be 2.5. Moreover, the efficacy in [2], in series [5] (application rate 100 g/ha), in series [6] (application rate 100 g/ha) and in [7] (application rate 100 g/ha) was 100% in each case. Further, the “efficacy (laying of fertile eggs)” value in [3] came out at 100%. In addition, the figures for the “efficacy (kill)” value in series [4] and in [8] were 100% and 90%, respectively.

`Cc1cc(C(F)(C(F)(F)F)C(F)(F)F)cc(C)c1-n1cc(-c2cncc(C(=O)NC3(C#N)CC3)c2)cn1` [I-T3-8]: the “logP^a)” value in series [1] and in [1] (setting [11]) was 3.4 throughout. Moreover, the “efficacy (laying of fertile eggs)” value in [3] was 100%. Moreover, the “efficacy (kill)” value in [4], in [8] and in series [9] was 100% throughout. Moreover, the efficacy in [5] (application rate 500 g/ha) is 90%; in [6] (application rate 500 g/ha) it was 100%; in series [10] (application rate 500 g/ha), 100%; in [7] (application rate 500 g/ha), 100%.
